Measured values as given in US20210317140A1, “Heterocyclic Compounds and Methods of Use” (MEDIVATION TECHNOLOGIES, INC, priority 2013, published 2021).

Key:
CD69+B220+ cells = test: B cell activation assay (IgD-stimulated splenocytes, CD69+B220+ cells by FACS); format: cell-based; settings: mouse splenocytes, IgD 3 μg/mL, 4 h; for CD69 @ 100 nM (% Inh): 100 nM compound
Method in brief: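 Read-out is percent CD69+ among live B220+ cells by FACS after 4 h stimulation with 3 μg/mL IgD at 37 °C. Before stimulation, splenocytes from one female mouse (10^6 cells/mL) received 100 nM compound for 30 min.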

PI3Kδ = molecular target: T1, PI3Kδ (Homo sapiens, UniProt O00329); test: PI3Kδ kinase assay (HTRF, PIP3 detection); format: biochemical; settings: for PI3Kδ @ 0.1 μM (% Inh): 0.1 μM compound; for IC50: 10 dose IC50, 10 μM ATP
T1 construct: purchased Reaction Biology Corporation
Method in brief: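 PIP3 formation read by loss of energy transfer as it displaces biotin-PIP3 from a Eu anti-GST/GST-PH/streptavidin-APC complex, calibrated against PIP3 standards.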

PI3Kα = molecular target: T2, PI3Kα (Homo sapiens, UniProt P42336); test: PI3Kα isoform profiling (PI3Kδ protocol); format: biochemical; settings: 10 dose IC50
T2 construct: purchased Reaction Biology Corporation
T2 sequence (P42336 whole entry, canonical isoform): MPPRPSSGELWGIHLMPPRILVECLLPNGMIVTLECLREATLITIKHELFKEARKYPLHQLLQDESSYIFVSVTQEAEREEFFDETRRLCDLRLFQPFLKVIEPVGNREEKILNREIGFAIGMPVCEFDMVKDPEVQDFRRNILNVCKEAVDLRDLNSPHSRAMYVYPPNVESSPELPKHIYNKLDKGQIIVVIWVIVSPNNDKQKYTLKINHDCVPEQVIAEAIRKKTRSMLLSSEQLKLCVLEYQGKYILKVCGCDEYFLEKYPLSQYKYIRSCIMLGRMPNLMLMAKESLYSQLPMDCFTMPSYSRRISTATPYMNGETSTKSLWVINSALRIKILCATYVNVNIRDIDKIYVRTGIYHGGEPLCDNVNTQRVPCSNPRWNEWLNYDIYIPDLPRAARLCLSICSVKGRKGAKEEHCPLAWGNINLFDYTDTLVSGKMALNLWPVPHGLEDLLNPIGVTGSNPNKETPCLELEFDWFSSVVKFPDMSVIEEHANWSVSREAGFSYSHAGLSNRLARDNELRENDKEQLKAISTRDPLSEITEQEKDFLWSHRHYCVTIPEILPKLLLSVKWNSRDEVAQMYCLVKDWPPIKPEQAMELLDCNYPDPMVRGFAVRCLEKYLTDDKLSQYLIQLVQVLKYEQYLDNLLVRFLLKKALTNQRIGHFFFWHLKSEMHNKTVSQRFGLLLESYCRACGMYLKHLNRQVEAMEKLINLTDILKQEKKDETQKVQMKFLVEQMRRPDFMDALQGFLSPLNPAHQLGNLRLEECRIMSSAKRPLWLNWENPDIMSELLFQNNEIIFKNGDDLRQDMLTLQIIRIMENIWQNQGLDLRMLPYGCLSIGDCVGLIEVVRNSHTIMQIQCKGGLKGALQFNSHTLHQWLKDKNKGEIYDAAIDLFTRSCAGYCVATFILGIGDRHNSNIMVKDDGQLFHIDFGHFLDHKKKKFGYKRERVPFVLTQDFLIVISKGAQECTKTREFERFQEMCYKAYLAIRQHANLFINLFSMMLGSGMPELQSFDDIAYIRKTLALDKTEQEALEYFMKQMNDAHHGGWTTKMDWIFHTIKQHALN
T2 sequence (P27986 whole entry partner, canonical isoform): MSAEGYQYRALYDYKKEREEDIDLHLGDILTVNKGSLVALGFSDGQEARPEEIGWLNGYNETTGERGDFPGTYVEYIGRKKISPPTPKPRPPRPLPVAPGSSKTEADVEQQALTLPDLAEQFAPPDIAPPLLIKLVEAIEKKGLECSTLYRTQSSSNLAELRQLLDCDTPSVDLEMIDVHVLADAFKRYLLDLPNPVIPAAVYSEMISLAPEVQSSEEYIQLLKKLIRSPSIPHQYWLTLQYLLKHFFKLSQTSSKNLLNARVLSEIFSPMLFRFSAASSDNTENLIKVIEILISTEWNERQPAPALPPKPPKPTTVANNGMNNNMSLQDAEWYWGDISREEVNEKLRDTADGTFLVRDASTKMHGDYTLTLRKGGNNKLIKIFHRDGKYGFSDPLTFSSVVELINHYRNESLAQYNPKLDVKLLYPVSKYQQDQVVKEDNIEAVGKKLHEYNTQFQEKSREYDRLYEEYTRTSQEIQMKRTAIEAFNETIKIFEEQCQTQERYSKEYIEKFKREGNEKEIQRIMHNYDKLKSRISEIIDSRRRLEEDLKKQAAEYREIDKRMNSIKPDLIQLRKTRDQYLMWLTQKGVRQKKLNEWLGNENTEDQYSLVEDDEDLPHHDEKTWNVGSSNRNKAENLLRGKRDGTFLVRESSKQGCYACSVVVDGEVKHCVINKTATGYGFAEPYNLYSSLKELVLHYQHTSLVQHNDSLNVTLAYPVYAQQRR

T1 sequence (O00329 whole entry): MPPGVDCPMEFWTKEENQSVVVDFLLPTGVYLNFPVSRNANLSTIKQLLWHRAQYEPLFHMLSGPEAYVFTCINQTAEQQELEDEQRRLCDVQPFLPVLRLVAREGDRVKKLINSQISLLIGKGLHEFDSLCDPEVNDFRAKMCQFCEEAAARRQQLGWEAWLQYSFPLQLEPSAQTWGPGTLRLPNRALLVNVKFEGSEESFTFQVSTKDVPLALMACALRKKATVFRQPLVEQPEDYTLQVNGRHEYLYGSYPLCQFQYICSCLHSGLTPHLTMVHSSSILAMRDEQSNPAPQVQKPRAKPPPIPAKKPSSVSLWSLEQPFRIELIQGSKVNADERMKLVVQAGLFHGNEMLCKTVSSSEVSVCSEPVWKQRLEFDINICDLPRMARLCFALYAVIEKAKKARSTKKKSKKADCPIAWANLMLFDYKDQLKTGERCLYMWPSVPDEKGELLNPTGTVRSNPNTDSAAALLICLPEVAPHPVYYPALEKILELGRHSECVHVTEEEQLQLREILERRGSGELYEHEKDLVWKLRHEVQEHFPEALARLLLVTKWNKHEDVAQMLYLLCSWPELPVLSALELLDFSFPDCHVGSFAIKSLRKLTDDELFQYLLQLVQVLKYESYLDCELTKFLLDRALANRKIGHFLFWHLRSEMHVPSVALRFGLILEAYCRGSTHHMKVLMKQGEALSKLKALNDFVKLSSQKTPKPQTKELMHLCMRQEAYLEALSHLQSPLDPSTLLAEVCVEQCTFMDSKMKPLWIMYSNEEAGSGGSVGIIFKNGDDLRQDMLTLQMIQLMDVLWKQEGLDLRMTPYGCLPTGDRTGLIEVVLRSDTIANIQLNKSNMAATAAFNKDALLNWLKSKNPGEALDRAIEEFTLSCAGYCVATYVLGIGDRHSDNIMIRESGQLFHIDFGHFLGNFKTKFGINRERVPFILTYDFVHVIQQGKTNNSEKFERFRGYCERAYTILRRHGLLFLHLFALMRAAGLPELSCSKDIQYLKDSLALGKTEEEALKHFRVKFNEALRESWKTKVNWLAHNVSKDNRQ
T1 sequence (P27986 whole entry partner): as the sequence (P27986 whole entry partner, canonical isoform) above

Compound | CD69 @ 100 nM (% Inh) (CD69+B220+ cells) | IC50 (CD69+B220+ cells; Splenocyte) | PI3Kδ @ 0.1 μM (% Inh) (PI3Kδ; 10 μM ATP) | PI3Kδ @ 1 μM (% Inh) (PI3Kδ; 1 μM compound, 10 μM ATP) | IC50 (PI3Kδ) | IC50 (PI3Kα) | PI3Kδ @ 0.01 μM (% Inh) (PI3Kδ; 0.01 μM compound, 10 μM ATP)
Nc1ncnc2c1c(-c1cc(O)cc(F)c1)nn2C1Cc2ccc(F)cc2C1 (centres unmarked) [compound 57, 3-[4-amino-1-(5-fluoro-2,3-dihydro-1H-inden-2-yl)-1H-pyrazolo[3,4-d]pyrimidin-3-yl]-5-fluorophenol] | 64.26 ± 21.20 (n = 6) % Inh | 0.117 ± 0.0836 µM | 96.89 % Inh | 100.0 % Inh | 0.008 µM | 0.0711 µM | 
Nc1ncnc2c1c(-c1cc(O)c(F)c(Cl)c1)cn2C1Cc2ccccc2C1 [compound 110, 5-[4-amino-7-(2,3-dihydro-1H-inden-2-yl)-7H-pyrrolo[2,3-d]pyrimidin-5-yl]-3-chloro-2-fluorophenol] | −11.51 ± 15.89 (n = 3) % Inh |  | 76.2 % Inh |  | 0.0119 µM | 0.0835 µM | 40.85 % Inh
